{"source": "patent US20130079309A1", "about": "“Method Of Treating Acute Lung Injury Using Sphingosine 1 Phosphate Analogs Or Sphingosine 1 Phosphate Receptor Agonists” (The Board of Trustees of the University of Illinois, priority 2010, published 2013)", "key": {"[1]": {"system": "HPAEC", "assay": "Transendothelial electrical resistance (TER) of HPAEC", "assay_type": "cell-based, human", "conditions": "10 μM, within 60 min", "protocol": "Cells were grown at 37° C. in a 5% CO2 incubator, and passages 6 to 9 were used for experiments. Media were changed 1 day before experimentation."}, "[2]": {"system": "HPAEC", "assay": "Transwell transendothelial permeability assay (FITC-dextran)", "assay_type": "cell-based, human", "conditions": "1 μM (3R, 3S 25 μM), 1 h before FITC-dextran, 2-h incubation", "quoted_text": "As a complementary approach to further characterize the barrier-protective effects of these FTY720 analogs in vitro, the permeability of FITC-labeled dextran across the pulmonary EC monolayer was assayed in response to treatment by the FTY720 analogs. […] Data were normalized to unstimulated control. n=3 independent experiments per condition; *, p<0.01 versus unstimulated condition (see FIG. 26)."}, "[3]": {"system": "MLC", "assay": "Western blotting of HPAEC lysates for phospho-MLC", "assay_type": "cell-based, human", "conditions": "5 min", "protocol": "(§1) After treatment as outlined for individual experiments, confluent HPAEC were lysed for Western blotting with phospho-MLC, pan-MLC, phospho-ERK, or pan-ERK antibodies. […] Membranes were then immunoblotted with primary antibodies (1:500-1000, 4° C., overnight) followed by secondary antibodies conjugated to horseradish peroxidase (1:5000, room temperature, 30 min) and detected with enhanced chemiluminescence (Pierce ECL or SuperSignal West Dura; Pierce Biotechnology, Rockford, Ill.) on Biomax MR film (Carestream Health, Rochester, N.Y.)."}, "[4]": {"system": "ERK", "assay": "Western blotting of HPAEC lysates for phospho-ERK", "assay_type": "cell-based, human", "conditions": "5 min", "protocol": "as §1"}, "[5]": {"system": "HPAEC", "assay": "Intracellular calcium by Fura-2", "assay_type": "cell-based, human", "conditions": "1 μM", "protocol": "To further explore the mechanistic differences in barrier regulation, intracellular calcium responses to the FTY720 analogs, S1P, and FTY720 were examined using Fura-2 (Harbeck et al., 2006, Sci STKE 2006: p16). HPAEC plated on 25-mm glass coverslips were loaded with 1 μM Fura-2/acetoxymethyl ester (Invitrogen, Carlsbad, Calif.) for 20 min at 37° C. in KRBH5 buffer (Krebs-Ringer-bicarbonate solution containing 119 mM NaCl, 4.7 mM KCl, 2.5 mM CaCl2, 1 mM MgCl2, 1 mM KH2PO4, 25 mM NaHCO3, mM HEPES-NaOH (pH 7.4), and 5 mM glucose). After replacement of the Fura-2 loading buffer with fresh KRBH5, coverslips were placed into the specimen stage of an inverted fluorescence microscope (Nikon TE-2000U). A Nikon Super Fluor 10× objective was used for these studies. Filters (340- and 380-nm excitation and 530-nm emission) were used for Fura-2 dual excitation ratio imaging. […] Fura-2 ratios were converted to [Ca^2+] using the equation: [Ca^2+]=(Kd′[(R−Rmin)/(Rmax−R)]×Sf/Sb) (Grynkiewicz et al., 1985, J Biol Chem 260: 3440-3450), where Kd′ is the dissociation constant for Fura-2 in the cytosol (225 nM) and Sf and Sb are the measured emission intensities at 380 nm for Ca^2+-free and Ca^2+-bound Fura-2, respectively. Data summaries for all Ca^2+ measurements are expressed as the means±S.E."}, "[6]": {"system": "HPAEC", "conditions": "Camp et al., 2009; cited from earlier work"}, "[7]": {"system": "β-arrestin", "conditions": "1 μM (SEW2871 10 μM; (S)-FTY720-phosphonate 1, 10, 50 μM), 5 h", "quoted_text": "After another 2 h-incubation with fluorescence substrate, the fluorescence intensity (blue and green channels) were detected and the blue/green emission ratio was used as the activation indicator."}, "[8]": {"system": "LPS-induced lung injury in C57BL/6 mice", "assay": "LPS-induced murine lung injury model", "conditions": "1S 0.1-5.0 mg/kg i.p. single dose 1 h after LPS 2.5 mg/kg i.t.; 18 h; FTY720 0.5 mg/kg, S1P 0.026 mg/kg", "quoted_text": "For experiments performed in intact animals, male C57BL/6 mice (8-10 weeks) were anesthetized with intraperitoneal ketamine and acetylpromazine mixture according to the approved protocol. Escherichia coli LPS solution (2.5 mg/kg) or sterile saline was instilled intratracheally via a 20-gauge catheter. Simultaneously, mice received either FTY720 or analogs (in doses: 0.01, 0.1, 0.5, 1, and 5 mg/kg i.p.) or PBS as vehicle. The animals were allowed to recover for 18 h. BAL and lungs were collected and stored at −70° C. for evaluation of lung injury.\nPure BAL fluids prepared for protein measurement or myeloperoxidase activity (MPO) lung homogenates were used to test albumin concentration. The assay was performed in 96-well plastic plates (Nalge Nunc A/S, Roskilde, Denmark). Plates were coated with mouse albumin (Bethyl Lab, Montgomery, Tex.), washed, and blocked. Aliquots (100-μl) of the sample or standard and 100 μl of goat anti-mouse albumin antibody (horseradish peroxidase-conjugated) (1:50,000) were then added, followed by incubation at 37° C. for 1 h. Finally, the substrate 3,3′,5,5′-tetramethylbenzidine was added for 10 min, and the reaction stopped by adding 100 μl of 2 M H2SO4. The absorbance at 450 nm was read on a kinetic microplate reader (Molecular Devices).\nMyeloperoxidase (MPO) was isolated and measured from snap-frozen right lungs as follows (see also Remick et al., 1990, Am J Pathol 136: 49-60). The right lung was homogenized in 1 ml of 50 mM potassium phosphate, pH 6.0, with 0.5% hexadecyltrimethylammonium bromide. The resulting homogenate was sonicated and then centrifuged at 12,000 g for 15 min. The supernatant was mixed 1:30 with assay buffer (100 mM potassium phosphate, pH 6.0, 0.005% H2O2, 0.168 mg/ml o-dianisidine hydrochloride), and absorbance read at 490 nm. MPO units were calculated as the change in absorbance with respect to time.\nPeripheral blood was examined by the Missouri University Research Animal Diagnostic Laboratory (Columbia, Mo.) for determination of total blood cell counts and differentials in blood samples.\nValues are shown as the mean±S.E. Data were analyzed using a standard Student's t test or one-way analysis of variance, groups were compared by Newman-Keuls test, and significance in all cases was defined at p<0.05."}, "[9]": {"system": "HPAEC", "assay": "Pharmacologic inhibitor effects on barrier enhancement (TER)", "conditions": "1 μM agonist, 60 min", "quoted_text": "Endothelial cells were grown to confluence in polycarbonate wells containing evaporated gold microelectrodes (surface area, 10^−3 cm^2) in series with a large gold counter electrode (1 cm^2) connected to a phase-sensitive lock-in amplifier. Current was applied across the electrodes by a 4,000-Hz AC voltage source with amplitude of 1 V in series with a 1 MΩ resistance to approximate a constant current source (˜1 μA). The in-phase and out-of-phase voltages between the electrodes were monitored in real time with the lock-in amplifier and subsequently converted to scalar measurements of transendothelial impedance, of which resistance was the primary focus. TER was monitored for 30 minutes to establish a baseline resistance (R0) which, for bovine pulmonary endothelium, was typically between 8 to 12×10^3Ω (wells with R0<7×10^3Ω were rejected). As cells adhere and spread out on the microelectrode, TER increases (maximal at confluence), whereas cell retraction, rounding, or loss of adhesion is reflected by a decrease in TER. These measurements provide a highly sensitive biophysical assay that indicates the state of cell shape and focal adhesion. Values from each microelectrode were pooled at discrete time points and plotted versus time as the mean±SE of the mean. TER values from each microelectrode were pooled as discrete time points and plotted versus time as the mean±S.E.M.\nIn this experiment, confluent HPAEC were plated on gold microelectrodes and then stimulated with 1 μM S1P, FTY720, 1R, 1S, 2R, or 2S after either a 2-h preincubation with 100 ng/ml PTX, 30-min preincubation with 200 μM genistein (Gen), or 2-h preincubation with 2 mM MβCD or their respective vehicle controls. Data were pooled from multiple TER experiments (4-10 independent experiments per condition) and expressed as percentage inhibition of maximal barrier enhancement at 60 min relative to agonist-only control."}, "[10]": {"target": "T1, S1P receptor 1 (S1PR1) (Homo sapiens, UniProt P21453)", "T1 sequence (P21453 whole entry)": "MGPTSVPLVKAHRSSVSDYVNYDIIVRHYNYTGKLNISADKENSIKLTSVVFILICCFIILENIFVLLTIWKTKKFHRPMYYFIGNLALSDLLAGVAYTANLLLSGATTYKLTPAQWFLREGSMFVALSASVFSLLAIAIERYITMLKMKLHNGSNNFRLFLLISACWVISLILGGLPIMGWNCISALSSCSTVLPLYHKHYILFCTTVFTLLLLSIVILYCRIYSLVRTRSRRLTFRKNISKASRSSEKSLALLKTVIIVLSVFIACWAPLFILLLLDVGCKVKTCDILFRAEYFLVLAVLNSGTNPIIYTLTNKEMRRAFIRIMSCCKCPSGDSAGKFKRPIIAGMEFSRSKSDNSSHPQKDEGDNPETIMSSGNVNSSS", "assay": "Ubiquitination of S1PR1 in HPAEC (immunoprecipitation, ubiquitin Ab)", "conditions": "1 μM, 1 h", "excerpt": "S1PR1 was immunoprecipitated by S1PR1Ab, and ubiquitination of S1PR1 was detected by ubiquitin Ab."}, "[11]": {"target": "T1, S1P receptor 1 (S1PR1)", "assay": "S1PR1 protein expression in HPAEC by Western blot", "assay_type": "cell-based", "design": "Cells were collected and S1PR1 expression level was detected by Western blot; endogenous in cells; host or cells: HPAEC (human pulmonary artery endothelial cells)", "conditions": "1 μM (SEW2871 10 μM), 4 h", "description": "Cells were collected and S1PR1 expression level was detected by Western blot."}}}
{"smiles": "CCCCCCCCCCCCC/C=C/[C@@H](O)[C@@H](N)COP(=O)(O)O", "note": "[S1P, sphingosine 1 phosphate]", "values": [{"measurement": "maximal TER change", "setting": "[1]", "value": "somewhat barrier-disruptive"}, {"measurement": "EC permeability to FITC-dextran vs control EC", "setting": "[2]", "value": "significantly decreased permeability"}, {"measurement": "MLC phosphorylation", "setting": "[3]", "value": "increased MLC and ERK phosphorylation"}, {"measurement": "ERK phosphorylation", "setting": "[4]", "value": "increased MLC and ERK phosphorylation"}, {"measurement": "intracellular calcium [Ca2+]i", "setting": "[5]", "value": "produced a transient Ca^2+ spike"}, {"measurement": "doses that can disrupt EC monolayer integrity", "setting": "[6]", "value": "> 10", "unit": "µM"}, {"measurement": "activation of β-arrestin (blue/green emission ratio)", "setting": "[7]", "value": "strongly activated"}, {"measurement": "capillary leak as total BAL protein, relative to PBS control", "setting": "[8]", "value": "reduction in permeability by 1S was comparable to that achieved by S1P or FTY720"}, {"measurement": "% Inhibition of Maximal TER Response (of Agonist-Only Control), PTX", "setting": "[9]; 2-h preincubation 100 ng/ml PTX", "value": "98.35 (±0.25) %"}, {"measurement": "% Inhibition of Maximal TER Response (of Agonist-Only Control), MβCD", "setting": "[9]; 2-h preincubation 2 mM MβCD", "value": "81.5 (±8.0) %"}, {"measurement": "% Inhibition of Maximal TER Response (of Agonist-Only Control), Gen", "setting": "[9]; 30-min preincubation 200 μM genistein", "value": "42.4 (±13.9) %"}, {"measurement": "ubiquitination of S1PR1 at 1 h", "setting": "[10]", "value": "significant ubiquitination"}, {"measurement": "S1PR1 expression level compared to control", "setting": "[11]", "value": 38.1, "unit": "%"}]}
